Data: patent US20140154263A1, “Use of TAK1 Inhibitor to Achieve Glycemic Control in Mammals” (Connexios Life Sciences Pvt. Ltd., priority 2012, published 2014)

Legend:
JNK [1] = assay: JNK phosphorylation under inflammatory conditions in adipocytes; type: cell-based; conditions: in response to inflammatory cytokine, FIG. 1
IkB = IkB level in skeletal muscle cells; type: cell-based; conditions: skeletal muscle cells under inflammatory conditions (Infl), FIG. 14
From the text: (§1) Taken together, TAK-1 inhibition could lead to decreased JNK and NFkB signaling under metabolic overload and inflammation.

rat primary hepatocytes = assay: Reactive oxygen species in rat primary hepatocytes; type: cell-based; conditions: glucose, palmitate and inflammatory cytokines, FIG. 8
From the text: Reactive oxygen species (ROS) are generated as metabolic byproducts, particularly as a byproduct of oxidative phosphorylation. Under normal conditions, the levels of ROS generated are low and tightly controlled, and can function as signaling intermediates.

JNK [2] = assay: JNK activation in skeletal muscle cells; type: cell-based
From the text: as §1

skeletal muscle cells = assay: Mitochondrial biogenesis in skeletal muscle cells (mtND1, mitochondrial DNA copy number, MEF2C); type: cell-based; conditions: FIG. 18
[3] = tested on: insulin gene, PDX1, IL1b, glucokinase (GCK) and Glut2 (slc2a2); assay: Gene expression in islet beta cells under inflammatory conditions; type: cell-based, rat
rat islets = assay: Glucose stimulated insulin secretion (GSIS) under inflammatory conditions; type: cell-based; conditions: inflammatory condition (Infl), FIG. 25
C2C12 myotubes = assay: NO release from muscle cells; type: cell-based
From the text: (§2) Oxidative stress mediated by both ROS and RNS (NO) is known to impair mitochondrial function and induced insulin resistance in skeletal muscle (FIG. 17). Furthermore, it is also known that metabolic overload and inflammatory signal drives oxidative stress in skeletal muscles.

skeletal muscles = assay: ROS levels in skeletal muscle cells; type: cell-based; conditions: different disease conditions, FIG. 17 C
From the text: as §2

3T3F442A cells = assay: Secreted adiponectin in adipocytes; type: cell-based; conditions: inflammation (inf) plus metabolic overload (pal), FIG. 4
From the text: Adiponectin is secreted by insulin sensitive mature adipocytes and positively modulates glucose and lipid metabolism in non adipose tissues such as liver, muscle etc. Increased adiponectin secretion is desirable and is correlated with whole body insulin sensitivity. Inflammation (inf) in the presence of metabolic overload (pal) caused a decrease in adiponectin secretion in 3T3F442A cells.

3T3 L1 cells = assay: Insulin sensitivity in adipocytes (Western blot p-Akt Thr-308 / total Akt); type: cell-based; conditions: glucose and palmitate 48 hours, then 10 and 100 nM insulin 15 min, FIG. 2
Protocol: This was ascertained by treating 3T3 L1 cells with glucose and palmitate (GP) for 48 hours in the presence and absence of TAK-1 inhibitor. Cells were then stimulated with 10 and 100 nM insulin (I) for 15 min, following which they were taken up for Western blot analysis for p-Akt ([…]) and total Akt.

3T3F442A pre adipocytes = assay: Adipogenesis (TG levels) under inflammatory cytokines; type: cell-based; conditions: differentiation with inflammatory cytokines, FIG. 3
Protocol: Experiments were performed in which inflammatory cytokines were added to 3T3F442A pre adipocytes (UD) and TG levels were estimated as a measure of adipogenesis. Differentiation was carried out in the presence and absence of TAK-1 inhibitor.

muscle cells = assay: Mitochondrial activity of muscle cells (reduction of MTT); type: cell-based; conditions: inflammation and oxidative stress conditions, FIG. 18
[4] = metabolic overload or inflammation

COc1cc(O)c2c(c1)/C=C/C[C@H](O)[C@H](O)C(=O)/C=C\C[C@H](C)OC2=O [(5Z)-7-Oxozeaenol]
activation of JNK (JNK [1]): decreased activation of JNK
IkB level (NFkB pathway) (IkB): increasing IkB level
intracellular ROS levels (rat primary hepatocytes): reduced ROS levels
activation of JNK (JNK [2]; in response to inflammatory cytokines, FIG. 13): decreased activation of JNK
activation of JNK (JNK [2]; in response to metabolic stress (palmitate overload)): reduce activation of JNK
mitochondrial DNA copy number (skeletal muscle cells; [4]): increased mitochondrial DNA copy number
muscle enriched transcription factor (MEF2C) (skeletal muscle cells; [4]): increased
expression of mitochondrial genes such as mtND1 (skeletal muscle cells; skeletal muscle cells): up-regulate
inflammation induced IL1b expression ([3]; rat islet, FIG. 27): reduce inflammation induced IL1b expression
insulin gene and PDX1 expression ([3]; rat islets, under inflammation, FIG. 26): up-regulate
glucose stimulated insulin secretion (GSIS) (rat islets): restored GSIS
inflammation induced NO release (C2C12 myotubes; C2C12 myotubes, FIG. 17 A): reduced inflammation induced NO release from C2C12 myotubes in a dose dependent manner
NO release (C2C12 myotubes; skeletal muscles, metabolic overload (high glucose and palmitate) and inflammatory conditions, FIG. 17 B): reduced NO release
ROS levels (skeletal muscles): reduced
decrease in adiponectin secretion (3T3F442A cells): partially inhibited
insulin sensitivity (p-Akt Thr-308 / total Akt) (3T3 L1 cells): restored insulin sensitivity
TG levels as a measure of adipogenesis (3T3F442A pre adipocytes): partially restored
mitochondrial activity (reduction of MTT) (muscle cells): increase mitochondrial activity
